The target in this test is T1, human LAT1 (Homo sapiens, UniProt Q01650).
T1 construct: expressed in transfected cells
Nature of the test: Promoting effect on amino acid efflux from human LAT1 stably expressing cell line. The class given is cell-based. On the procedure:
In the same manner as in Example 3, the human LAT1 stably expressing cell line and the human LAT2 stably expressing cell line were seeded on separate collagen-coated 24-well plates, and after 48 hours, the cells were washed with an uptake buffer prewarmed at 37° C. An uptake buffer supplemented with 1 μM of [^14C]L-leucine or [^14C]L-alanine was added to each well, and [^14C]L-leucine or [^14C]L-alanine uptake by the cells was allowed to proceed at 37° C. for 10 minutes. […] The radioactivity in each supernatant was measured as the radioactivity of the amino acid released from the cells. Subsequently, 500 μL of 0.1 M NaOH was added to each well for cell lysis, 20 μL of the lysate was used for the measurement of the protein concentration, and the remaining lysate was used for the measurement of the residual radioactivity in the cells. The sum of the residual radioactivity and the released radioactivity in each experiment was checked to confirm that there was no great difference in the total radioactivity incorporated into the cells at the preloading among the experiments. […]
Based on the measured values of amino acid efflux at the indicated concentrations of each compound, the Km value for amino acid efflux from the human LAT1 stably expressing cell line and the Km value for amino acid efflux from the human LAT2 stably expressing cell line were calculated and shown in Table 5. […]

The source of these data is patent US9839701B2, “Aromatic amino acid derivative and positron emission topography (PET) probe using the same” (OSAKA UNIVERSITY, priority 2013, dated 2017).

T1 sequence (Q01650 whole entry): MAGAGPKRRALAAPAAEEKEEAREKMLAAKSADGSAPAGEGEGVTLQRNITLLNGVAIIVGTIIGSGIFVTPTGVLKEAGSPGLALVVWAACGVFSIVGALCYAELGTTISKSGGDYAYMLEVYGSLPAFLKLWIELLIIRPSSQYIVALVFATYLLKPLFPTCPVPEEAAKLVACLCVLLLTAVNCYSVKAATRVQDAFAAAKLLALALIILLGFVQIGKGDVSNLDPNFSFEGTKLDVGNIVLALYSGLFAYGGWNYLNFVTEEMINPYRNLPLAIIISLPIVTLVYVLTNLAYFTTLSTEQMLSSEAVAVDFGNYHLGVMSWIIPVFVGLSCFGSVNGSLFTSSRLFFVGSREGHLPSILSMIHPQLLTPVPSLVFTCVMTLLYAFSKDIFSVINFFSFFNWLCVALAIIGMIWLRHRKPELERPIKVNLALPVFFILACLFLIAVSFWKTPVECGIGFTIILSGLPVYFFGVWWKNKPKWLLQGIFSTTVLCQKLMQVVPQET
T1 sequence (P08195 102-630 partner): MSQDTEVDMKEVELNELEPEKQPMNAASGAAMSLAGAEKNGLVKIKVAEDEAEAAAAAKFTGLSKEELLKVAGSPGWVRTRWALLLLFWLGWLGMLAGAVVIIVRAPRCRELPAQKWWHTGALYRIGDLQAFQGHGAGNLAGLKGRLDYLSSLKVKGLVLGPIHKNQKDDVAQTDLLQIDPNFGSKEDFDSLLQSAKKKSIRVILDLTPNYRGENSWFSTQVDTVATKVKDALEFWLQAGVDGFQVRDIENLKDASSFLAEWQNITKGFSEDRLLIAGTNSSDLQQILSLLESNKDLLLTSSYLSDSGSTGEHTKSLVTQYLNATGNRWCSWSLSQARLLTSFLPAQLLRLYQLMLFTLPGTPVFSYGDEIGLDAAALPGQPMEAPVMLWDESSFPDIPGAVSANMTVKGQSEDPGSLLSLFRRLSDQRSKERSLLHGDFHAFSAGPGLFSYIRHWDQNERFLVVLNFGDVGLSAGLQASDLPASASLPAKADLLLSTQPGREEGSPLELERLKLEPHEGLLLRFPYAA

Regarding `NC(Cc1cc(OCCF)ccc1I)C(=O)O` (centres unmarked) [Example 1, 2-amino-3-(5-(2-fluoroethoxy)-2-iodophenyl)propanoic acid], under “10 μM, 1 min, FIG. 2”, the “Promoting effect on amino acid efflux via human LAT1, compared with FAMT” value was “twice or more higher than that of FAMT”. In addition, the “Affinity for human LAT1 relative to FAMT” value (from Km values) was at least 10 times.
